According to patent US6596772B1, “Phosphate mimics and methods of treatment using phosphatase inhibitors” (Sugen, Inc., priority 1999, dated 2003):

Test system: PTPs
Test: Direct comparison of R groups against the PTPs
Type: biochemical, human
Settings: change of the R group from CF3SO2NH—
Experimental: The effect of the compounds on PTP was evaluated at 25° C. using pNPP or FDP as substrate. PTP was pre-incubated for fifteen minutes with various concentrations of compound. Substrate was then added at a fixed concentration (usually equal to the Km previously calculated). After 10 minutes, NaOH was added to stop the reaction. The hydrolysis of pNPP was followed at 410 nm on the Biotek Powerwave 200 microplate scanning spectrophotometer. The percent inhibition was calculated as follows: Percent Inhibition=[(control signal−compound signal)/control signal] ×100%. The IC50 was then determined by interpolation of a percent inhibition versus compound concentration plot.

Row | Structure (SMILES) | activity relative to the CF3SO2NH— compound
1 | CS(=O)(=O)Nc1ccc(Oc2ccc(Oc3ccc(NS(C)(=O)=O)cc3)cc2)cc1 [CH3SO2NH—] | dramatic decrease in activity
2 | Nc1ccc(Oc2ccc(Oc3ccc(N)cc3)cc2)cc1 [NH2] | complete loss of activity
